Test results reported in publication PMC10698726 (Molecular Pharmaceutics, 2023).
Where two headings read alike, the source gives them in different places.

Key:
OCT1 = target: T1, OCT1 (Homo sapiens, UniProt O15245); assay: Inhibition of model substrate uptake in OCT1-overexpressing HEK293 cells; format: cell-based; design: expressed in transfected cells; host or cells: HEK293; details: 5 min; for inhibition at 5 min, 20 μM: human, OCT1-overexpressing HEK293 cells; for inhibition at 5 min, 20 μM / (S,S)-Ethambutol inhibition [%] / ASP+ inhibition [%] / Sumatriptan inhibition [%]: OCT1, 20 μM inhibitor
T1 sequence (O15245 1-554): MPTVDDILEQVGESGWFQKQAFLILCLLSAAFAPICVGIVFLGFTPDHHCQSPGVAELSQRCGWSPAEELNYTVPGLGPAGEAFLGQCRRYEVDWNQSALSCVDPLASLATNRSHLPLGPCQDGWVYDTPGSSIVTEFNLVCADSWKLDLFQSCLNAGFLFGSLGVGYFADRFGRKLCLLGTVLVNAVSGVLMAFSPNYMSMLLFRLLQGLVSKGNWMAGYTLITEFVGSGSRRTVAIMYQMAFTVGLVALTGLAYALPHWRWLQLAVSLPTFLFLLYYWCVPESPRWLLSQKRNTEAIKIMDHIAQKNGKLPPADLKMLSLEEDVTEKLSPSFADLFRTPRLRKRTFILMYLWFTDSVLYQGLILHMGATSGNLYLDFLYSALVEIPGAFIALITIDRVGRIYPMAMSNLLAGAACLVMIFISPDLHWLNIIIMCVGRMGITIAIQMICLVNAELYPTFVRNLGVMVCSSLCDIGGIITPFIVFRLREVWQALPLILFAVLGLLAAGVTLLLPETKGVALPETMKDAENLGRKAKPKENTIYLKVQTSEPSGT
Description: Koepsell and Gorbulev (University of Würzburg, Germany).
Fluorescence quantification was performed in technical duplicates.

OCT2 = target: T2, OCT2 (Homo sapiens, UniProt O15244); assay: Inhibition of model substrate uptake in OCT2-overexpressing HEK293 cells; details: 5 min; for inhibition at 5 min, 20 μM: human, OCT2-overexpressing HEK293 cells; for inhibition at 5 min, 20 μM / (S,S)-Ethambutol inhibition [%] / ASP+ inhibition [%] / N-Ethyllidocaine inhibition [%]: OCT2, 20 μM inhibitor
T2 sequence (O15244 1-555): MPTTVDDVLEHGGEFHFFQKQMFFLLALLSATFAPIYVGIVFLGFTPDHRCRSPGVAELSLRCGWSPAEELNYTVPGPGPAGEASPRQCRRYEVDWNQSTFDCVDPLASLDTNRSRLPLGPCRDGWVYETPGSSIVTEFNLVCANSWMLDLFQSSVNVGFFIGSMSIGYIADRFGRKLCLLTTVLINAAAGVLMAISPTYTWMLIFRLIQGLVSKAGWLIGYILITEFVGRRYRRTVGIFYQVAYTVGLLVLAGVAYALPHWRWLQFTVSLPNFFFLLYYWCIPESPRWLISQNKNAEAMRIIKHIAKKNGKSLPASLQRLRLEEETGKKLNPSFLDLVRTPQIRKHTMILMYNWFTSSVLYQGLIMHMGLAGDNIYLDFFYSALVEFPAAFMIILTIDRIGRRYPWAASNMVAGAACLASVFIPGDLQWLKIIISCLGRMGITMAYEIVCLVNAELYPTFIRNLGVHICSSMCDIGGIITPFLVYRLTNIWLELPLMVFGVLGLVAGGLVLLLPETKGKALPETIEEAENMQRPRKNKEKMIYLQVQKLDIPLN

OCT3 = target: T3, OCT3 (Homo sapiens, UniProt O75751); assay: Inhibition of model substrate uptake in OCT3-overexpressing HEK293 cells; format: cell-based; details: for inhibition at 20 µM / (S)-Zolmitriptan inhibition [%] / (S,S)-Ethambutol inhibition [%] / ASP+ inhibition [%]: 20 μM inhibitor; for (S)-Zolmitriptan inhibition [%] / (S,S)-Ethambutol inhibition [%] / ASP+ inhibition [%]: OCT3
T3 construct: expressed in transfected cells; host or cells: HEK293
T3 sequence (O75751 1-556): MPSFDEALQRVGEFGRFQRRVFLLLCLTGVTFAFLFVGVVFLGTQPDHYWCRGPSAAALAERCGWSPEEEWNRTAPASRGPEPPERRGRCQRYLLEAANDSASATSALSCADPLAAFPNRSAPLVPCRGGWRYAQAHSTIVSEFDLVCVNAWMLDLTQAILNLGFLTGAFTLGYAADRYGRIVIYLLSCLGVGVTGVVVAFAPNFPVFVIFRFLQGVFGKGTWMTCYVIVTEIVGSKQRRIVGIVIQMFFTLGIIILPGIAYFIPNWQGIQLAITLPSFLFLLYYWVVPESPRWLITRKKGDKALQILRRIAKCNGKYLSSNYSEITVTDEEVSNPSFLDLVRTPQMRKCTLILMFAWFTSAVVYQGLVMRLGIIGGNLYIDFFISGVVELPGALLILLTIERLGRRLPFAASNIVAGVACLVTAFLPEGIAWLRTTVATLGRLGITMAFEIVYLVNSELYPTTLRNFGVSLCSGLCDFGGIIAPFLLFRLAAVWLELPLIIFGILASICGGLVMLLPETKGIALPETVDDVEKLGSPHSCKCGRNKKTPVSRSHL
Procedure, shortened: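 Transporter-overexpressing HEK293 cells were incubated 5 min in HBSS+ with 2 μM model substrate, with or without 20 μM inhibitor or increasing inhibitor concentrations. Uptake was read as ASP^+ fluorescence or by LC–MS/MS, with empty-vector uptake subtracted. IC50 came from a Hill fit of activity versus log concentration.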

[1] = pH 7.4, probe (S,S)-ethambutol (2 μM), (S,S)-Ethambutol inhibition [%], 2 μM (S,S)-ethambutol
[2] = pH 7.4, probe ASP+ (2 μM), 2 μM ASP+, mean of three experiments, read-out: ASP+ inhibition [%]
[3] = pH 7.4, probe sumatriptan (2 μM), 2 μM sumatriptan, read-out: Sumatriptan inhibition [%]
[4] = pH 7.4, probe ASP+ (2 μM), ASP+ inhibition [%], 2 μM ASP+
[5] = pH 7.4, probe N-ethyllidocaine (2 μM), N-Ethyllidocaine inhibition [%], 2 μM N-ethyllidocaine
[6] = HEK293, 5 min, read-out: (S)-Zolmitriptan inhibition [%], OCT3, 2 μM (S)-zolmitriptan, 5 min
[7] = HEK293, 5 min, read-out: (S,S)-Ethambutol inhibition [%], OCT3, 2 μM (S,S)-ethambutol, 5 min
[8] = HEK293, OCT3, 2 μM ASP+, 5 min, read-out: ASP+ inhibition [%]
[9] = 2 μM ASP+, mean of three experiments

## Cc1cccc(C)c1OC[C@H](C)N [(S)-Mexiletine]
OCT1; [1]
  inhibition at 5 min, 20 μM: 78%
OCT1; [2]
  inhibition at 5 min, 20 μM: 40.1%
OCT1; [3]
  inhibition at 5 min, 20 μM: 84.3%
OCT2; [1]
  inhibition at 5 min, 20 μM: 58.7%
OCT2; [4]
  inhibition at 5 min, 20 μM: 52.9%
OCT2; [5]
  inhibition at 5 min, 20 μM: 51.3%
OCT3; [6]
  inhibition at 20 µM: 30%
OCT3; [7]
  inhibition at 20 µM: 11.8%
OCT3; [8]
  inhibition at 20 µM: -6.6%

## NC[C@@H](O)c1ccc(O)c(O)c1 [(S)-Norepinephrine]
OCT1; 2 μM (S,S)-ethambutol
  (S,S)-Ethambutol inhibition [%]: 6.1%
OCT1; [9]
  ASP+ inhibition [%]: -3.3%
OCT1; 2 μM sumatriptan
  Sumatriptan inhibition [%]: 6.6%
OCT2; 2 μM (S,S)-ethambutol
  (S,S)-Ethambutol inhibition [%]: 5.1%
OCT2; 2 μM ASP+
  ASP+ inhibition [%]: 20.5%
OCT2; 2 μM N-ethyllidocaine
  N-Ethyllidocaine inhibition [%]: 7.1%
OCT3; 2 μM (S)-zolmitriptan, 5 min
  (S)-Zolmitriptan inhibition [%]: -6.6%
OCT3; 2 μM (S,S)-ethambutol, 5 min
  (S,S)-Ethambutol inhibition [%]: 12.5%
OCT3; 2 μM ASP+, 5 min
  ASP+ inhibition [%]: -3.5%

## CCN(CC)CC#CCOC(=O)[C@@](O)(c1ccccc1)C1CCCCC1 [(S)-Oxybutynine]
OCT1; IC50, OCT1, Table S5, 2 μM ASP+ or ethambutol as model substrate
  IC50: 141 µM
OCT1; 2 μM (S,S)-ethambutol
  (S,S)-Ethambutol inhibition [%]: 96.3%
OCT1; [9]
  ASP+ inhibition [%]: 59.3%
OCT1; 2 μM sumatriptan
  Sumatriptan inhibition [%]: 83.5%
OCT2; IC50, OCT2, Table S5, 2 μM ASP+ as model substrate
  IC50: 20.1 µM
OCT2; 2 μM (S,S)-ethambutol
  (S,S)-Ethambutol inhibition [%]: 24.5%
OCT2; 2 μM ASP+
  ASP+ inhibition [%]: 92.8%
OCT2; 2 μM N-ethyllidocaine
  N-Ethyllidocaine inhibition [%]: 48.6%
OCT3; IC50, OCT3, Table S5, 2 μM ASP+ or ethambutol as model substrate, 5 min
  IC50: 40 µM
OCT3; 2 μM (S)-zolmitriptan, 5 min
  (S)-Zolmitriptan inhibition [%]: 65.2%
OCT3; 2 μM (S,S)-ethambutol, 5 min
  (S,S)-Ethambutol inhibition [%]: 75.7%
OCT3; 2 μM ASP+, 5 min
  ASP+ inhibition [%]: 40.5%

## CNC[C@@H](O)c1cccc(O)c1 [(S)-Phenylephrine]
OCT1; [1]
  inhibition at 5 min, 20 μM: 6.2%
OCT1; [2]
  inhibition at 5 min, 20 μM: 5.2%
OCT1; [3]
  inhibition at 5 min, 20 μM: -5.1%
OCT2; [1]
  inhibition at 5 min, 20 μM: 5.5%
OCT2; [4]
  inhibition at 5 min, 20 μM: 5.4%
OCT2; [5]
  inhibition at 5 min, 20 μM: -2.7%
OCT3; [6]
  inhibition at 20 µM: -3.9%
OCT3; [7]
  inhibition at 20 µM: 5.6%
OCT3; [8]
  inhibition at 20 µM: 2.7%

## CC(C)NC[C@H](O)COc1cccc2ccccc12 [(S)-Propranolol]
OCT1; 2 μM (S,S)-ethambutol
  (S,S)-Ethambutol inhibition [%]: 74.3%
OCT1; [9]
  ASP+ inhibition [%]: 40.6%
OCT1; 2 μM sumatriptan
  Sumatriptan inhibition [%]: 82.8%
OCT2; 2 μM (S,S)-ethambutol
  (S,S)-Ethambutol inhibition [%]: 28.4%
OCT2; 2 μM ASP+
  ASP+ inhibition [%]: 57.3%
OCT2; 2 μM N-ethyllidocaine
  N-Ethyllidocaine inhibition [%]: 32.4%
OCT3; OCT3, Table 1, read-out: IC50
  IC50: 69 µM
OCT3; 2 μM (S)-zolmitriptan, 5 min
  (S)-Zolmitriptan inhibition [%]: 38.2%
OCT3; 2 μM (S,S)-ethambutol, 5 min
  (S,S)-Ethambutol inhibition [%]: 32.0%
OCT3; 2 μM ASP+, 5 min
  ASP+ inhibition [%]: -2.9%

## C#CCN[C@H]1CCc2ccccc21 [(S)-Rasagiline]
OCT1; 2 μM (S,S)-ethambutol
  (S,S)-Ethambutol inhibition [%]: 37.5%
OCT1; [9]
  ASP+ inhibition [%]: 6.9%
OCT1; 2 μM sumatriptan
  Sumatriptan inhibition [%]: 50.6%
OCT2; [1]
  inhibition at 5 min, 20 μM: 57%
OCT2; [4]
  inhibition at 5 min, 20 μM: 59.6%
OCT2; [5]
  inhibition at 5 min, 20 μM: 59.5%
OCT3; 2 μM (S)-zolmitriptan, 5 min
  (S)-Zolmitriptan inhibition [%]: 6.7%
OCT3; 2 μM (S,S)-ethambutol, 5 min
  (S,S)-Ethambutol inhibition [%]: 8.8%
OCT3; 2 μM ASP+, 5 min
  ASP+ inhibition [%]: -7.7%

## CC(C)(C)NC[C@@H](O)c1ccc(O)c(CO)c1 [(S)-Salbutamol]
OCT1; 2 μM (S,S)-ethambutol
  (S,S)-Ethambutol inhibition [%]: 9.3%
OCT1; [9]
  ASP+ inhibition [%]: 6.1%
OCT1; 2 μM sumatriptan
  Sumatriptan inhibition [%]: -10.2%
OCT2; 2 μM (S,S)-ethambutol
  (S,S)-Ethambutol inhibition [%]: 3.0%
OCT2; 2 μM ASP+
  ASP+ inhibition [%]: -2.8%
OCT2; 2 μM N-ethyllidocaine
  N-Ethyllidocaine inhibition [%]: -17.4%
OCT3; 2 μM (S)-zolmitriptan, 5 min
  (S)-Zolmitriptan inhibition [%]: -3.4%
OCT3; 2 μM (S,S)-ethambutol, 5 min
  (S,S)-Ethambutol inhibition [%]: 14.5%
OCT3; 2 μM ASP+, 5 min
  ASP+ inhibition [%]: 1.3%
